According to US8518952B2, “6 substituted 2-heterocyclylamino pyrazine compounds as CHK-1 inhibitors” (Pfizer Inc., priority 2008, dated 2013):
Like-named read-outs stand apart in the source and are kept apart here.

Experiments:
[1] = molecular target: T1, CHK1 (kinase domain) (Homo sapiens, UniProt O14757); experiment: CHK1 Ki determination, spectrophotometric coupled (pyruvate kinase/lactate dehydrogenase) assay; type: biochemical; conditions: CHK-1 kinase domain; for percent inhibition (where no Ki data is available): inhibitor concentration not given; for Ki: 150 uM ATP, 125 uM Syntide 2
T1 construct: a solution containing 1 nM of CHK1 (kinase domain)
T1 sequence (O14757 9-265 limits assumed): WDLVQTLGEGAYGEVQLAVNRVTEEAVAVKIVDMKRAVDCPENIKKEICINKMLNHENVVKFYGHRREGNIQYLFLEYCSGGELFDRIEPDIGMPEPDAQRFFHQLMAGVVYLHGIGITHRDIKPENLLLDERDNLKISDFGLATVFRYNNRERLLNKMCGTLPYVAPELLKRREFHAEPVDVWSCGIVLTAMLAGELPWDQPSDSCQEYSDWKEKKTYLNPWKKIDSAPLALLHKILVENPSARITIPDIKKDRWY
Protocol: After 15 min pre-incubation, the enzymatic reaction was initiated by the simultaneous addition of Syntide 2 peptide (125 uM, final concentration) and ATP (150 uM, final concentration). The kinase-catalyzed production of ADP from ATP that accompanied phosphoryl transfer to the substrate Syntide 2 was coupled to the oxidation of NADH through the activities of pyruvate kinase and lactate dehydrogenase. NADH conversion to NAD^+ was monitored by the decrease in absorbance at 340 nm (ε=6.22 cm^−1 mM^−1) using a microplate reader from Molecular Devices Spectormax Plus (Sunnyvale, Calif.) or BMG LABTECH Inc (Offenburg, Germany).
The inhibition of CHK1 was analyzed by fitting the data to the following equation to determine Kiapp:
[formula] where [E]o and [I]o are the active enzyme and inhibitor concentration, respectively; Ki is the inhibition binding constant and Km the Michaelis-Menten constant for ATP; Vi and Vo are the rates of substrate oxidation in the presence of and in the absence of inhibitor, respectively. EC50 Determination (Cellular Assay)
(§1) Under the “Ki” column, data entries in the format of “%” are percent inhibition data where no Ki data is available. Data entry under the “EC50” column with an * are data obtained using Mia Paca-2 cells rather than HeLa cells. Data is not available where noted as n/a.

[2] = test system: HeLa cells; experiment: Histone H3 (Ser10) phosphorylation ELISA, abrogation of camptothecin-induced G2 arrest (CHK-1 cellular assay); type: cell-based
Protocol: The Histone H3 phosphorylation ELISA assay detects cells entering mitosis and represents the primary in vitro cell-based assay used to measure the cellular potency of compounds in abrogating the G2 check point induced by DNA damage in HeLa cells or MiaPaCa cells. The candidate substances were assayed for potency in their ability to inhibit camptothecin-induced G2 arrest, as measured by an increase in Histone H3 phosphorylation on Ser10, a marker of entry into mitosis.
Tissue culture plates were seeded with HeLa cells or MiaPaCa Cells and allowed to attach overnight. The cells were then treated with camptothecin to induce DNA damage for 8 hrs. Candidate substances or diluent were then added in the presence of nocodozole for 16 hours. […] The fresh whole cell lysates were then thawed and added to the ELISA plate with shaking for 3 hours. Between all subsequent steps plates were washed 4 times with PBST. Biotinylated phospho Histone H3 (ser10) detection antibody was added for 1 hour, followed by addition of horseradish peroxidase-linked streptavidin secondary antibody for 1 hour. Color development of the antibody was performed with addition of TMB substrate and incubation for 2 minutes on a plate shaker. […] EC50 values were calculated by sigmoid curve fitting using a four-parameter analysis.
as §1

[3] = Homo sapiens, HeLa, HeLa cells, camptothecin 8 hrs, then compound with nocodozole 16 hours, read-out: EC50
[4] = HeLa cells, camptothecin 8 hrs, then compound with nocodozole 16 hours, read-out: EC50

SMILES	EC50 [2, 3]	Ki [1]	further results
c1ccc2c(c1)ncn2-c1cncc(N[C@@H]2CCCNC2)n1 [Example 1, 6-(1H-benzimidazol-1-yl)-N-[(3R)-piperidin-3-yl]pyrazin-2-amine]	–	13.2 nM	EC50 ([2]; Homo sapiens, HeLa): 70.3 nM
c1ccn2c(-c3cncc(N[C@@H]4CCCNC4)n3)cnc2c1 [Example 2, 6-Imidazo[1,2-a]pyridin-3-yl-N-[(3R)-piperidin-3-yl]pyrazin-2-amine]	–	3.24 nM	EC50 ([2]; Homo sapiens, HeLa): 34.3 nM
c1ccn2c(-c3cncc(N[C@H]4CCCNC4)n3)cnc2c1 [Example 3, 6-Imidazo[1,2-a]pyridin-3-yl-N-[(3S)-piperidin-3-yl]pyrazin-2-amine]	486 nM	–	percent inhibition (where no Ki data is available) [1]: 0%
c1ccn2ncc(-c3cncc(N[C@@H]4CCCNC4)n3)c2c1 [Example 6, N-[(3R)-piperidin-3-yl]-6-pyrazolo[1,5-a]pyridin-3-ylpyrazin-2-amine]	31.8 nM	2.54 nM	–
C[C@@H]1CC[C@@H](Nc2cncc(-n3cnc4cc(OCC5(C)COC5)ccc43)n2)CN1 [Example 9, 6-{5-[(3-Methyloxetan-3-yl)methoxy]-1H-benzimidazol-1-yl}-N-[(3R,6R)-6-methylpiperidin-3-yl]pyrazin-2-amine]	≥ 10000 nM	131 nM	–
c1ccn2c(-c3cncc(N[C@@H]4CCNC4)n3)cnc2c1 [Example 10, 6-Imidazo[1,2-a]pyridin-3-yl-N-[(3R)-pyrrolidin-3-yl]pyrazin-2-amine]	244 nM	23.6 nM	–
FC1(F)CCNCC1Nc1cncc(-c2cnc3ccccn23)n1 (centres unmarked) [Example 11, N-(4,4-difluoropiperidin-3-yl)-6-(imidazo[1,2-a]pyridin-3-yl)pyrazin-2-amine]	62.1 nM	–	percent inhibition (where no Ki data is available) [1]: 101%^
C[C@@H]1CNC[C@@H]1Nc1cncc(-c2cnc3ccccn23)n1 [Example 12, 6-Imidazo[1,2-a]pyridin-3-yl-N-[(3R,4R)-4-methylpyrrolidin-3-yl]pyrazin-2-amine]	68.4 nM	27.5 nM	–
CC(C)Oc1ccc2ncn(-c3cncc(N[C@@H]4CCNC4)n3)c2c1 [Example 15, 6-[6-(propan-2-yloxy)-1H-benzimidazol-1-yl]-N-[(3R)-pyrrolidin-3-yl]pyrazin-2-amine]	≥ 10000 nM	–	percent inhibition (where no Ki data is available) [1]: 43.5%^
c1cnc2c(-c3cncc(N[C@@H]4CCCNC4)n3)cnn2c1 [Example 23, N-[(3R)-piperidin-3-yl]-6-pyrazolo[1,5-a]pyrimidin-3-ylpyrazin-2-amine]	–	–	percent inhibition (where no Ki data is available) [1]: 36.1%^; EC50 ([2]; Homo sapiens, HeLa cells, camptothecin 8 hrs, then compound with nocodozole 16 hours, read-out: EC50): ≥ 10000 nM
FC(F)[C@@H]1C[C@@H](Nc2cncc(-c3cnc4ccccn34)n2)CN1 [Example 25, N-[(3R,5S)-5-(difluoromethyl)pyrrolidin-3-yl]-6-(imidazo[1,2-a]pyridin-3-yl)pyrazin-2-amine]	≥ 10000 nM	70.2 nM	–
F[C@@H]1CCNC[C@@H]1Nc1cncc(-c2cnc3ccccn23)n1 [Example 27, N-[(3S,4R)-4-fluoropiperidin-3-yl]-6-(imidazo[1,2-a]pyridin-3-yl)pyrazin-2-amine]	5580 nM	53.9 nM	–
F[C@H]1CCNC[C@@H]1Nc1cncc(-c2cnc3ccccn23)n1 [Example 28, N-[(3S,4S)-4-fluoropiperidin-3-yl]-6-imidazo[1,2-a]pyridin-3-ylpyrazin-2-amine]	205 nM	4.77 nM	–
C[C@H]1CC[C@@H](Nc2cncc(-c3cnc4ccccn34)n2)CN1 [Example 30, 6-imidazo[1,2-a]pyridin-3-yl-N-[(3R,6S)-6-methylpiperidin-3-yl]pyrazin-2-amine]	634 nM	147 nM	–
Cc1cn2c(-c3cncc(N[C@@H]4C[C@@H]5CN[C@H]4C5)n3)cnc2s1 [Example 85, (1S,4R,6R)-2-Aza-bicyclo[2.2.1]hept-6-yl-[6-(2-methyl-imidazo[2,1-b]thiazol-5-yl)-pyrazin-2-yl]-amine]	–	–	EC50 [2, 4]: 795 nM
Cc1cn2c(-c3cncc(N[C@@H]4C[C@@H]5CN[C@H]4C5)n3)cnc2s1 [Example 125, (1S,4R,6R)-N-[6-(2-methylimidazo[2,1-b][1,3]thiazol-5-yl)pyrazin-2-yl]-2-azabicyclo[2.2.1]heptan-6-amine]	–	–	EC50 [2, 4]: 35 nM
C[C@H]1NCCC[C@H]1Nc1cncc(-c2cnc3ccccn23)n1 [Example 138, 6-imidazo[1,2-a]pyridin-3-yl-N-[(2R,3R)-2-methylpiperidin-3-yl]pyrazin-2-amine]	–	–	EC50 [2, 4]: 188 nM

The next lines start with results.

EC50 [2, 3]	Ki [1]	SMILES	further results
7970 nM	–	F[C@H]1CNC[C@@H]1Nc1cncc(-c2cnc3ccccn23)n1 (relative stereo) [Example 46, Trans N-[4-fluoropyrrolidin-3-yl]-6-imidazo[1,2-a]pyridin-3-ylpyrazin-2-amine]	percent inhibition (where no Ki data is available) [1]: 29.7%^
119 nM	37.9 nM	Cc1cn2c(-c3cncc(N[C@@H]4CC[C@@H](C)NC4)n3)cnc2s1 (relative stereo) [Example 61, Trans 6-(2-Methylimidazo[2,1-b][1,3]thiazol-5-yl)-N-(6-methylpiperidin-3-yl)pyrazin-2-amine]	–
694 nM	73.5 nM	Cc1cn2c(-c3cncc(N[C@@H]4CC[C@H](C)NC4)n3)cnc2s1 (relative stereo) [Example 62, Cis 6-(2-Methylimidazo[2,1-b][1,3]thiazol-5-yl)-N-(6-methylpiperidin-3-yl)pyrazin-2-amine]	–
183 nM	27.3 nM	C[C@@H]1CC[C@@H](Nc2cncc(-c3cnc4ccccn34)n2)CN1 [Example 31, 6-imidazo[1,2-a]pyridin-3-yl-N-[(3R,6R)-6-methylpiperidin-3-yl]pyrazin-2-amine]	–
29 nM	3.38 nM	C[C@@H]1CNC[C@@H]1Nc1cncc(-n2cnc3cc(-c4cnn(C)c4)ccc32)n1 [Example 34, 6-[5-(1-methyl-1H-pyrazol-4-yl)-1H-benzimidazol-1-yl]-N-[(3R,4R)-4-methylpyrrolidin-3-yl]pyrazin-2-amine]	–
40.9 nM	3.88 nM	CCO[C@H]1CCNC[C@@H]1Nc1cncc(-c2cnc3ccccn23)n1 [Example 35, N-[(3S,4S)-4-ethoxypiperidin-3-yl]-6-(imidazo[1,2-a]pyridin-3-yl)pyrazin-2-amine]	–
40 nM	8 nM	Cc1ccn2c(-c3cncc(N[C@@H]4CCCNC4)n3)cnc2c1 [Example 38, 6-(7-Methylimidazo[1,2-a]pyridin-3-yl)-N-[(3R)-piperidin-3-yl]pyrazin-2-amine]	–
677 nM	17 nM	FC(F)(F)c1ccc2ncc(-c3cncc(N[C@@H]4CCCNC4)n3)n2c1 [Example 39, N-[(3R)-piperidin-3-yl]-6-[6-(trifluoromethyl)imidazo[1,2-a]pyridin-3-yl]pyrazin-2-amine]	–
104 nM	4.43 nM	FC(F)(F)c1ccn2c(-c3cncc(N[C@@H]4CCCNC4)n3)cnc2c1 [Example 40, N-[(3R)-piperidin-3-yl]-6-[7-(trifluoromethyl)imidazo[1,2-a]pyridin-3-yl]pyrazin-2-amine]	–
25.8 nM	7 nM	c1cn2c(-c3cncc(N[C@@H]4CCCNC4)n3)cnc2s1 [Example 41, 6-Imidazo[2,1-b][1,3]thiazol-5-yl-N-[(3R)-piperidin-3-yl]pyrazin-2-amine]	–
29.3 nM	7 nM	CCc1ccn2c(-c3cncc(N[C@@H]4CCCNC4)n3)cnc2c1 [Example 42, 6-(7-Ethylimidazo[1,2-a]pyridin-3-yl)-N-[(3R)-piperidin-3-yl]pyrazin-2-amine]	–
